Molecular target: T1, β-amyloid(1–42) (Aβ1–42) aggregates (Homo sapiens, UniProt P05067)
T1 construct: gene APP; Aβ1–42, aggregates (filamentous)
Test: fluorescence saturation binding assay with Aβ[…] aggregates

T1 sequence (P05067 672-713): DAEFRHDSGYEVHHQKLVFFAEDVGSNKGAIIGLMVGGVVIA

Question: For `CN(C)c1ccc(/C=C/c2sc3ccccc3[n+]2C)cc1` [SZI-1, (E)-2-(4-(Dimethylamino)styryl)-3-methylbenzo[d]thiazol-3-ium Iodide], which Kd is on record?
Answer: Its Kd is 508 ± 94.8 nM.

Question: How did the Kd turn out when `CN(C)c1ccc(/C=C/C=C/c2sc3ccccc3[n+]2C)cc1` [SZI-2, 2-((1E,3E)-4-(4-(Dimethylamino)phenyl)buta-1,3-dien-1-yl)-3-methylbenzo[d]thiazol-3-ium Iodide] was run?
Answer: Its Kd is 601 ± 94.8 nM.
